Patent US12150955B2, “Iodine compositions” (DERMALIQ THERAPEUTICS, INC., priority 2017, dated 2024)

Key:
[1] = Concentration of molecular iodine dissolved in the vehicle (saturated solutions); type: physicochemical
Method: Molecular iodine (I2) solutions in the semifluorinated alkane F4H5 at target concentrations of 0.01 mg/ml, 0.05 mg/ml, 0.1 mg/mL, 0.5 mg/mL, 0.55 mg/ml and 0.94 mg/mL were prepared. Molecular iodine was weighed into clear glass vials, followed by addition of the calculated volume of semifluorinated alkane F4H5. The compositions were stirred for 2 hours at room temperatures. The compositions provided clear pink solutions, ranging from strong pink/violet color at high concentrations (0.55 mg/ml) to very dilute pinkish colour at lower concentrations (0.01 mg/ml).
The 0.94 mg/ml solution was prepared by adding additional F4H5 to a composition comprising 1.0 mg/mL molecular iodine until all remaining molecular iodine particles were dissolved, providing a clear solution of deep pink/violet colour.
Molecular iodine (I2) solutions in the semifluorinated alkane F6H8 at target concentrations of 0.1 mg/mL, 0.5 mg/mL and 1.0 mg/mL were prepared. Molecular iodine was weighed into clear glass vials, followed by addition of the calculated volume of semifluorinated alkane F6H8. The compositions were stirred for 2 hours at room temperature
Additional F6H8 was added to the target 1.0 mg/mL composition until all remaining molecular iodine particles were dissolved, providing a clear solution, with a concentration of about 0.88 mg/mL. The solution is a deep pink/violet in colour.
Solutions with higher I2 concentrations may be prepared with the addition of ethanol (non-absolute or alternatively absolute). F4H5/EtOH-Concentrations of about 20 mg/mL of I2 in F4H5 are achieved when ethanol is added to an amount of 38% (w/w), relative to the weight of the vehicle The resulting composition is a red-brown coloured solution.
F6H8/EtOH-Solutions with higher I2 concentrations may be prepared with the addition of ethanol (non-absolute or alternatively absolute). Concentrations of about 20 mg/mL of I2 in F6H8 are achieved when ethanol is added to an amount of 38% (w/w), relative to the weight of the vehicle.
Saturated iodine solutions as prepared in Example 1 above of I2 in F4H5 (0.94 mg/mL) and F6H8 (0.88 mg/mL) were stored standing under ambient atmosphere and temperature conditions under a capped clear glass vial for 52 weeks without protection from light.

Rabbit corneas = experiment: Ex Vivo Eye Irritation Test (EVEIT), corneal healing
Method: A comparison in respect of corneal healing process was conducted for a composition comprising molecular iodine (0.25 mg/ml; 250 ppm) in 1-perfluorohexyl-octane (Composition B) with vehicle 1-perfluorohexyl-octane (Composition A) and hyaluronic acid (HYLO-COMOD®) as a reference and 0.01% BAC (benzalkonium chloride) as a control using an Ex Vivo Eye Irritation Test (EVEIT), similar to as described in M. Frentz et al, Altern. to Lab. Anim., 2008 (36) p 25-32; and N. Schrage et al, Graefes Arch Clin Exp Ophthalmol 2012 (250), 1330-1340).
Method. […]
After 12 h of stabilization in the culture chamber, the corneas were evaluated by microscopy and corneas with intact epithelium and without opacities were selected. […] All defects were monitored by fluorescein sodium staining (0.17% aq. solution) and microscopy.
The test substances were administered one hour after induction of the corneal erosion and were applied six times daily onto the apex of the corneas (30-50 μL every four hours). […] All defects were monitored by fluorescein sodium stains (0.17% aq. solution) with yellow green fluorescence indicating the areas of epithelial defects. Erosion sizes were determined using a software tool of the microscope (DISKUS). […] To monitor the metabolic activity of the cornea, glucose and lactate concentrations were photometrically quantified in the outflow medium from the artificial anterior chambers.

## II [molecular iodine, Molecular iodine]
[1]; in F4H5, room temperature
  concentration at which all molecular iodine particles were dissolved (saturated solution): 940 µg/mL
[1]; in F4H5 with ethanol 38% (w/w) of the vehicle
  I2 concentration achieved: about 20 mg/mL
[1]; in F6H8, room temperature
  concentration at which all molecular iodine particles were dissolved (saturated solution): about 0.88 mg/mL
[1]; in F6H8 with ethanol 38% (w/w) of the vehicle
  I2 concentration achieved: about 20 mg/mL

## benzalkonium chloride [0.01% BAC]
Rabbit corneas
  corneal healing process after induction of corneal erosion (in words): progressive increase of the induced epithelial lesions
